Reference: patent publication US10023593B2, “ALK kinase inhibitor, and preparation method and uses thereof” (BEIJING PEARL BIOTECHNOLOGY LIMITED LIABILITY COMPANY, priority 2014, dated 2018)

How the values were obtained:
[1] = tested on: NCI-H2228 cell line; assay: CellTiter-Glo cell proliferation inhibition on NCI-H2228 cell line; type: cell-based; conditions: Homo sapiens, 96 h, NCI-H2228 cells, 5000 cells/well, 4 days drug treatment
How it was run: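 NCI-H2228 cells, 5000/well in RPMI-1640 + 10% FBS, treated with compounds 2 h after seeding (0.5% DMSO final) for 4 days at 37° C. Viability by CellTiter-Glo luminescence; inhibition relative to DMSO control, IC50 from curve fit.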

[2] = tested on: Karpas-299 cell line; assay: CellTiter-Glo cell proliferation inhibition on Karpas-299 cell line; type: cell-based; conditions: Homo sapiens, 96 h, Karpas-299 cells, 5000 cells/well, 4 days drug treatment
Procedure: 4. Cell Proliferation Inhibitory Activities of the Compounds of the Present Invention on Karpas-299 Cell Line
? experimental method ? CellTiter-Glo® Luminescent Cell Viability Assay kit from Promega company was used to detect cell proliferation inhibitory activities of the compounds on Karpas-299 cell line.
? instrument ? Envision 2104 plate reader from PerKinElmer company; Vi-Cell XR cell counter from Beckman Counter company; MCO-18AIC CO2 incubator from SANYO company.
? experiment material ? CellTiter-Glo® Luminescent Cell Viability Assay Kit (Promega company, catalog No. G7573); Karpas-299 cell line (DSMZ, catalog No. ACC31); RPMI-1640 medium (HyClone company, catalog No. SH30809.01B); fetal bovine serum (FBS) (Gibco company, catalog No. 10099-141); PBS (HyClone company, catalog No. SH30256.01B); 96 wells cell culture plate (Corning company, catalog No. 3610); DMSO (AMRESCO company, catalog No. 0231); 96 wells plates (for diluting compounds) (CITOTEST company, catalog No. Ref36020096D);
? experimental condition ? Karpas-299 cells in exponential growth phase were collected and viable cells were counted by Vi-Cell XR cell counter. Cell suspension was adjusted to 62500 cells/ml with culture medium (RPMI-1640+10% FBS). 80 μl cell suspension was added into each well of 96 wells cell culture plate so that so that the final cell number of Karpas-299 cells was 5000 cells/well. The cells were cultivated in an incubator with an atmosphere of 37° C., 5% CO2 and 95% humidity for 2 hours and then each well was added with 20 μl compounds in RPMI-1640 medium solution (the final concentration of DMSO was 0.5%). 4 days after drug treatment, each well was added with 50 μl CellTiter-Glo solution which was previously thawed and equilibrated to room temperature, and mixed for 2 minutes with microplate shaker. After placing at room temperature for 10 minutes, luminescence reading value was measured with PerkinElmer Envision 2104 plate reader and the data was analyzed.
? tested samples ? Compounds of the examples.
Luminescence value of DMSO solvent control (Vvehicle control, which is the mean luminescence value from DMSO solvent control group)
Tested luminescence value (Vsample, which is the luminescence value from given concentration of compounds group) Inhibition rate (%)=(1−Vsample/Vvehicle control)×100
? data processing ? IC50 of compounds was calculated by using XLfit program in Excel.

[3] = molecular target: T1, cytochrome P450 1A2 (Homo sapiens, UniProt P05177); assay: Inhibitory activity on cytochrome P450 1A2; type: in vitro ADME; conditions: no significant inhibition
T1 sequence (P05177 1-516): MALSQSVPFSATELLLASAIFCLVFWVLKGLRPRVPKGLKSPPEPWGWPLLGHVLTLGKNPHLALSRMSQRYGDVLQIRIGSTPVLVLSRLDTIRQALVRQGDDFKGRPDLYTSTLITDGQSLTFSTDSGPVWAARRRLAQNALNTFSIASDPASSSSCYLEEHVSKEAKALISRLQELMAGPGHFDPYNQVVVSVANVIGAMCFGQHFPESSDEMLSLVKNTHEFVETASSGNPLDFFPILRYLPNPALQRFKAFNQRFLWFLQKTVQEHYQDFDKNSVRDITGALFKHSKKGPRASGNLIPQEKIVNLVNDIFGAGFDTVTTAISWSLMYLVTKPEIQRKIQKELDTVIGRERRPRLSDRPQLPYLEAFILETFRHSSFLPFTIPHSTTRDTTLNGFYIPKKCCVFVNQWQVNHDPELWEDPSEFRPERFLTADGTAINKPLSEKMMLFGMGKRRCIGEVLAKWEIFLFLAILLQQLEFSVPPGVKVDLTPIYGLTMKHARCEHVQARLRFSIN

[4] = molecular target: cytochrome P450 2C9 (Homo sapiens, UniProt P11712); assay: Inhibitory activity on cytochrome P450 2C9; type: in vitro ADME; conditions: no significant inhibition
[5] = molecular target: cytochrome P450 2C19 (Homo sapiens, UniProt P33261); assay: Inhibitory activity on cytochrome P450 2C19; type: in vitro ADME; conditions: no significant inhibition
[6] = molecular target: cytochrome P450 2D6 (Homo sapiens, UniProt P10635); assay: Inhibitory activity on cytochrome P450 2D6; type: in vitro ADME; conditions: no significant inhibition
[7] = molecular target: cytochrome P450 3A4 (Homo sapiens, UniProt P08684); assay: Inhibitory activity on cytochrome P450 3A4; type: in vitro ADME; conditions: no significant inhibition
Sequence of cytochrome P450 3A4 (P08684 whole entry): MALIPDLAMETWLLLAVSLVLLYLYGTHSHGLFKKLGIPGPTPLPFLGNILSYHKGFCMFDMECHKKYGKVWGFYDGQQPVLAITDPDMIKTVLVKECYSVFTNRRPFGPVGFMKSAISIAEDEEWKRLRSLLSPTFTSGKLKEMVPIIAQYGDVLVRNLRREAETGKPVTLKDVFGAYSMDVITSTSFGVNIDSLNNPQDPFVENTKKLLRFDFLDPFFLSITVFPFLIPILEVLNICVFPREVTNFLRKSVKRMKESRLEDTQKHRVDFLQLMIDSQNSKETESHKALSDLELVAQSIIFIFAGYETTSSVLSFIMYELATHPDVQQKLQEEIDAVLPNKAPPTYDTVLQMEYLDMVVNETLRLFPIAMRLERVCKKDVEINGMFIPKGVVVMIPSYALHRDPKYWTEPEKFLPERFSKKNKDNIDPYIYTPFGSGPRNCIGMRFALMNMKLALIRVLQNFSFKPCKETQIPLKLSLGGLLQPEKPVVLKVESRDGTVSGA

Sequence of cytochrome P450 2C9 (P11712 whole entry): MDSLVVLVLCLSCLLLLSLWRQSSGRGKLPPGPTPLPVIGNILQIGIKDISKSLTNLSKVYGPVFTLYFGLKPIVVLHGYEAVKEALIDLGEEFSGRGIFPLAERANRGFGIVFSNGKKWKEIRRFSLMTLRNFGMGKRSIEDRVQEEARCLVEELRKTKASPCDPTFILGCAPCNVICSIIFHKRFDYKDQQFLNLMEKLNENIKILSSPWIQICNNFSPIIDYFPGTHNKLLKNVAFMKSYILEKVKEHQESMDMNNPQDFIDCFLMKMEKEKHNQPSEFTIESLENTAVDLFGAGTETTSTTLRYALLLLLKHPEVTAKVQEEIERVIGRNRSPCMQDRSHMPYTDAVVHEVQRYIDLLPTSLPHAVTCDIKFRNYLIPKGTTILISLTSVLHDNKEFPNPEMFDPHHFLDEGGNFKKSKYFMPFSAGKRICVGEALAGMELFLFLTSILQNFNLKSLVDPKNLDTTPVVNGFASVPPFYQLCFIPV
Sequence of cytochrome P450 2C19 (P33261 whole entry): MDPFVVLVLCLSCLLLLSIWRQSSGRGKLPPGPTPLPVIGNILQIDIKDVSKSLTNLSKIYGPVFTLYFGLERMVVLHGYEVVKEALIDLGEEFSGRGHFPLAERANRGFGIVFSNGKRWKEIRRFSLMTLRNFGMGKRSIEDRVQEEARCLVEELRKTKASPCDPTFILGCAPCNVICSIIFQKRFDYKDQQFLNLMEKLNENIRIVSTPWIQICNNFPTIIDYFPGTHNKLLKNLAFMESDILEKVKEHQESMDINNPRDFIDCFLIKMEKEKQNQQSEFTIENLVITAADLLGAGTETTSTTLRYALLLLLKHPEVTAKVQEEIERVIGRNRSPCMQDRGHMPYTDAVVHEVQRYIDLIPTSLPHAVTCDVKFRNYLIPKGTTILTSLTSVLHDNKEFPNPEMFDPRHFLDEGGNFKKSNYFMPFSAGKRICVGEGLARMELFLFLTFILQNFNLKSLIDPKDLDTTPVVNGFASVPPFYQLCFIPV
Sequence of cytochrome P450 2D6 (P10635 whole entry): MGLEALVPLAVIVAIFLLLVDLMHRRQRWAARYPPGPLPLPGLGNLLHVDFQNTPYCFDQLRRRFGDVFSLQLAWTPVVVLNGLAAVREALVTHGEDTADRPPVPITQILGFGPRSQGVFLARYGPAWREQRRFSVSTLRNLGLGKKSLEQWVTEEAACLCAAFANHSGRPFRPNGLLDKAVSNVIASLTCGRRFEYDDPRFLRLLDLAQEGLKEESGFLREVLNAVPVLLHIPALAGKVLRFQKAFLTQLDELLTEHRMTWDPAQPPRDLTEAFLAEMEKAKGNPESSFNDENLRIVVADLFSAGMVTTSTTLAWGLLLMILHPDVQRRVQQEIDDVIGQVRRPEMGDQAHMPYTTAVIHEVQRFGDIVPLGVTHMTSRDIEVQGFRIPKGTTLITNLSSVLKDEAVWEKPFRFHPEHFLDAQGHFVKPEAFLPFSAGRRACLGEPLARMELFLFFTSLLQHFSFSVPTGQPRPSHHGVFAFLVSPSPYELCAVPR

## CCN1CCC(c2cc(OC3CC3)c(Nc3ncc(Cl)c(Nc4cn(C)nc4S(=O)(=O)C(C)C)n3)cc2C)CC1 [Final product 114, 5-chloro-N^2-[2-cyclopropoxy-4-(1-ethylpiperidin-4-yl)-5-methylphenyl]-N^4-[1-methyl-3-(isopropylsulfonyl)-1H-pyrazol-4-yl]-pyrimidin-2,4-diamine]
[1]
  IC50: 0.07 µM
[2]
  IC50: 0.01 µM
[3]
  IC50: > 10 µM
[4]
  IC50: > 10 µM
[5]
  IC50: > 10 µM
[6]
  IC50: > 10 µM
[7]
  IC50: > 10 µM
